# Measurements published in ChEMBL document CHEMBL1201862, “PubChem BioAssay data set” (2004).
#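 These data come from cells grown in 96-well plates and exposed to compound for 48 hours at five concentrations. GI50 marks 50% less growth.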 Calls of active or inactive are those of the source. Rule as the data show it: active = GI50 up to about 1.1 µM and inactive = higher.
# Legend:
# Assay in all cases: NCI tumour cell line growth inhibition, 48 h
# SNB-19 = tested on: SNB-19
# NCI-H226 = tested on: NCI-H226
# MDA-MB-435 = tested on: MDA-MB-435
# HL-60 = tested on: HL-60
# SW-620 = tested on: SW-620
# HOP-62 = tested on: HOP-62
# UACC-62 = tested on: UACC-62
# HCT-15 = tested on: HCT-15
# CAKI-1 = tested on: CAKI-1
# T47D = tested on: T47D
# RXF 393 = tested on: RXF 393
# HCC 2998 = tested on: HCC 2998
# NCI/ADR-RES = tested on: NCI/ADR-RES
# M14 = tested on: M14
# TK-10 = tested on: TK-10
# IGROV-1 = tested on: IGROV-1
# PC-3 = tested on: PC-3
# UO-31 = tested on: UO-31
# SK-MEL-2 = tested on: SK-MEL-2
SMILES,GI50 (SNB-19),GI50 (NCI-H226),GI50 (MDA-MB-435),GI50 (HL-60),GI50 (SW-620),GI50 (HOP-62),GI50 (UACC-62),GI50 (HCT-15),GI50 (CAKI-1),GI50 (T47D),GI50 (RXF 393),GI50 (HCC 2998),GI50 (NCI/ADR-RES),GI50 (M14),GI50 (TK-10),GI50 (IGROV-1),GI50 (PC-3),GI50 (UO-31),GI50 (SK-MEL-2)
N#Cc1c2c(c(N)oc1=O)C(c1ccccc1)CC(=O)N2 (stereo not drawn),> 100 µM (inactive),> 100 µM (inactive),> 100 µM (inactive),> 100 µM (inactive),> 100 µM (inactive),> 100 µM (inactive),> 100 µM (inactive),> 100 µM,> 100 µM (inactive),> 100 µM (inactive),> 100 µM (inactive),> 100 µM (inactive),> 100 µM (inactive),> 100 µM (inactive),> 100 µM (inactive),> 100 µM (inactive),> 100 µM (inactive),> 100 µM (inactive),> 100 µM (inactive)
CC1(Cc2cc3c(cc2C2(c4ccc([N+](=O)[O-])cc4)OCCO2)OCO3)OCCO1,> 100 µM (inactive),45 µM (inactive),98.2 µM (inactive),> 100 µM (inactive),> 100 µM (inactive),> 100 µM (inactive),36 µM (inactive),51.1 µM,63.5 µM (inactive),> 100 µM (inactive),86.1 µM (inactive),> 100 µM (inactive),87.9 µM (inactive),> 100 µM (inactive),> 100 µM (inactive),51.1 µM (inactive),47.2 µM (inactive),34.3 µM (inactive),68.4 µM (inactive)
CC(C(=O)c1ccncc1)c1ccccn1 (stereo not drawn),> 100 µM (inactive),> 100 µM (inactive),> 100 µM (inactive),> 100 µM (inactive),> 100 µM (inactive),> 100 µM (inactive),> 100 µM (inactive),> 100 µM,> 100 µM (inactive),> 100 µM (inactive),> 100 µM (inactive),> 100 µM (inactive),> 100 µM (inactive),> 100 µM (inactive),> 100 µM (inactive),> 100 µM (inactive),> 100 µM (inactive),> 100 µM (inactive),> 100 µM (inactive)
Nc1nc(Cl)c(N)c(NCC2(CO)CCC(CCc3ccccc3)C2)n1 (stereo not drawn),25.7 µM (inactive),18.2 µM (inactive),12.8 µM (inactive),3.37 µM (inactive),2.08 µM (inactive),17 µM (inactive),12.1 µM (inactive),16.1 µM,1.47 µM (inactive),1.56 µM (inactive),17.4 µM (inactive),16.9 µM (inactive),> 39.5 µM (inactive),13.1 µM (inactive),21.3 µM (inactive),22.8 µM (inactive),17.3 µM (inactive),18.4 µM (inactive),15.7 µM (inactive)
O=C(O)C1[C@@H](C(=O)O)C1(Br)CBr (stereo partly drawn),> 100 µM (inactive),> 100 µM (inactive),> 100 µM (inactive),> 100 µM (inactive),> 100 µM (inactive),> 100 µM (inactive),> 100 µM (inactive),> 100 µM,> 100 µM (inactive),> 100 µM (inactive),> 100 µM (inactive),> 100 µM (inactive),> 100 µM (inactive),> 100 µM (inactive),> 100 µM (inactive),> 100 µM (inactive),> 100 µM (inactive),> 100 µM (inactive),> 100 µM (inactive)
CC(=O)N1N=C(N)CC1=O,> 100 µM (inactive),> 100 µM (inactive),> 100 µM (inactive),> 100 µM (inactive),> 100 µM (inactive),> 100 µM (inactive),> 100 µM (inactive),> 100 µM,> 100 µM (inactive),> 100 µM (inactive),> 100 µM (inactive),> 100 µM (inactive),> 100 µM (inactive),> 100 µM (inactive),> 100 µM (inactive),> 100 µM (inactive),> 100 µM (inactive),> 100 µM (inactive),> 100 µM (inactive)
O=C(c1ccccc1)n1[nH]c(=O)n(-c2ccc(Cl)cc2)c1=O,39 µM (inactive),> 100 µM (inactive),> 100 µM (inactive),> 100 µM (inactive),> 100 µM (inactive),> 100 µM (inactive),> 100 µM (inactive),> 100 µM,> 100 µM (inactive),> 100 µM (inactive),> 100 µM (inactive),> 100 µM (inactive),> 100 µM (inactive),> 100 µM (inactive),> 100 µM (inactive),> 100 µM (inactive),> 100 µM (inactive),> 100 µM (inactive),> 100 µM (inactive)
